Assay results as given in PMC139962 (Lipids in Health and Disease, 2002).
Like-named read-outs stand apart in the source and are kept apart here.

What was measured:
[1] = target: AEA membrane transporter (AMT); format: biochemical, human; conditions: for Ki: read-out: Ki (inhibition of AMT); for IC50: read-out: IC50 of inhibition of [3H]AEA uptake; for inhibition of [3H]AEA uptake: 100 µM
[2] = test system: AEA membrane transporter (AMT); test: [3H]AEA uptake by human healthy brain; format: biochemical; conditions: for IC50: read-out: IC50 of inhibition of [3H]AEA uptake, 15 min at 37°C
[3] = test system: AEA membrane transporter (AMT); test: [3H]AEA uptake by mouse brain; format: biochemical; conditions: mouse brain synaptosomes
[4] = test system: AEA membrane transporter (AMT); test: [3H]AEA uptake by rat brain; format: biochemical; conditions: rat brain synaptosomes

Q: With NC(=O)CCC(N)C(=O)O (stereo in doubt) [D-Glutamine] as the compound, how does the Ki [1] read?
A: The Ki was 525 ± 50 nM.

Q: CCCCC/C=C\C/C=C\C/C=C\C/C=C\CCCC(=O)OC(CO)CO [2-AG, 2-arachidonoylglycerol] was tested. Which “effect on accumulation of 200 nM [3H]AEA” value [1] did it give?
A: The value was “inhibited almost completely”.

Q: How did the “Q10 (ratio of AEA uptake at 30°C and 20°C)” value ([2]; HB synaptosomes) turn out when CCCCC/C=C\C/C=C\C/C=C\C/C=C\CCCC(=O)NCCO [AEA, N-arachidonoylethanolamine] was run?
A: The value was ~ 1.5.

Q: And the “Vmax of AEA uptake” value ([2]; human healthy brain synaptosomes, 15 min, 0-1000 nM [3H]AEA, 37°C minus 4°C)?
A: The value was 374 ± 38 pmol/min per mg protein.

Q: And the “Q10 (ratio of AEA uptake at 30°C and 20°C)” value [1]?
A: Its value is ~ 1.5.

Q: What about the “Vmax of AEA uptake” value [1] of the same compound?
A: Its value is 219 ± 19 pmol/min per mg protein.

Q: What about the “effect on accumulation of 200 nM [3H]AEA” value [1] of the same compound?
A: Its value is “fully inhibited”.

Q: And the Km ([1]; read-out: apparent Km of AEA uptake)?
A: The Km was 793 ± 128 nM.

Q: And the “Vmax of AEA uptake” value [3]?
A: The value was 370 ± 23 pmol/min per mg protein.

Q: What about the Km ([3]; read-out: Km of AEA uptake) of the same compound?
A: Its Km is 660 ± 80 nM.

Q: And the “Vmax of AEA uptake” value [4]?
A: The value was 357 ± 18 pmol/min per mg protein.

Q: What about the Km ([4]; read-out: Km of AEA uptake) of the same compound?
A: Its Km is 483 ± 52 nM.

Q: Which results are given for CCCCC/C=C\C/C=C\C/C=C\C/C=C\CCCC(=O)Nc1ccc(O)cc1 [AM404, N-(4-hydroxyphenyl)-arachidonoylamide]?
A: IC50 ([2]; HB synaptosomes): ~7 µM; IC50 [1]: ~7 µM

Q: N[C@H](CCC(=O)O)C(=O)O [D-Glutamate] was tested. Which Ki [1] did it give?
A: Its Ki is 1230 ± 110 nM.

Q: For N[C@@H](CCC(=O)O)C(=O)O [L-Glutamate], which Ki [1] is on record?
A: Its Ki is 4000 ± 370 nM.

Q: How did the Ki [1] turn out when NC(=O)CC[C@H](N)C(=O)O [L-Glutamine] was run?
A: Its Ki is 1100 ± 90 nM.

Q: For CCN1C(=O)C=CC1=O [N-ethylmaleimide], which “inhibition of [3H]AEA uptake” value [1] is on record?
A: Its value is ~ 50%.

Q: Which “inhibition of [3H]AEA uptake” value [1] does the source give for O=S(=O)(F)Cc1ccccc1 [PMSF, phenylmethylsulfonyl fluoride] here?
A: The value was ~ 50%.

Q: Which “enhancement of [3H]AEA uptake” value [1] does the source give for N=c1c[n+](N2CCOCC2)[n-]o1 [SIN-1, 3-morpholinosydnonimine] here?
A: Its value is 180–220%.

Q: For CCCCC/C=C\C/C=C\C/C=C\C/C=C\CCCC(=O)Nc1ccc(O)cc1C [VDM11], which IC50 ([2]; HB synaptosomes) is on record?
A: Its IC50 is roughly 7 µM.

Q: What about the IC50 [1] of the same compound?
A: The IC50 was roughly 7 µM.

Q: CCCCC/C=C\C/C=C\C/C=C\C/C=C\CCCC(=O)O [arachidonic acid] was tested. Which “effect on accumulation of 200 nM [3H]AEA” value [1] did it give?
A: The value was “ineffective”.

Q: Which “effect on accumulation of 200 nM [3H]AEA” value [1] does the source give for NCCO [ethanolamine] here?
A: Its value is “ineffective”.

Q: O=C(O)CI [iodoacetic acid] was tested. Which “inhibition of [3H]AEA uptake” value [1] did it give?
A: The value was ~ 50%.

Q: For CCCCC/C=C\C[C@@H](O)/C=C/C=C/C=C\[C@@H](O)CCCC(=O)O [leukotriene B4], which “effect on accumulation of 200 nM [3H]AEA” value [1] is on record?
A: The value was “not affected”.

Q: How did the “effect on accumulation of 200 nM [3H]AEA” value [1] turn out when CCCCC[C@H](O)/C=C/[C@H]1[C@H](O)CC(=O)[C@@H]1C/C=C\CCCC(=O)O [prostaglandin E2] was run?
A: Its value is “not affected”.
